Test results reported in patent US8163931B2, “Treatment of CRTH2-mediated diseases and conditions” (Oxagen Limited, priority 2003, dated 2012).

Columns and labels:
CRTH2 [1] = target: T1, CRTH2 (Homo sapiens, UniProt Q9Y5Y4); test: Calcium mobilisation assay in CHO/CRTH2 cells (PGD2-induced calcium flux); assay type: cell-based; conditions: for IC50: read-out: IC50, inhibition of PGD2-induced calcium flux
T1 construct: expressed in transfected cells; host or cells: Chinese Hamster Ovary (CHO) cells, G418-selected (CHO/CRTH2)
T1 sequence (Q9Y5Y4 1-395): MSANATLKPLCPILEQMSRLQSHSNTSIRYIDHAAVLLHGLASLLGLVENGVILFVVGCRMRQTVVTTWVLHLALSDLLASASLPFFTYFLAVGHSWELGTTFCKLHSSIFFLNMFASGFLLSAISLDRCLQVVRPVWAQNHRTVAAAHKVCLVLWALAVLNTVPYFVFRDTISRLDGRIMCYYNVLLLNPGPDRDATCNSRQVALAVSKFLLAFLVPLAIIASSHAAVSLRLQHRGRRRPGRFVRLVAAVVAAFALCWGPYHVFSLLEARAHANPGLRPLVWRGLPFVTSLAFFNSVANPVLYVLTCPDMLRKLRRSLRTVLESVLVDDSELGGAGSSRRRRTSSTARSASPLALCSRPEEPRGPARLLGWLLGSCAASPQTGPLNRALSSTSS
Protocol: (§1) Chinese Hamster Ovary cells were transfected with CRTH2 or DP receptors (CHO/CRTH2 and CHO/DP) and were maintained in culture in a humidified atmosphere at 37° C. (5% CO2) in Minimum Essential Medium (MEM) supplemented with 10% foetal bovine serum, 2 mM glutamine, and 1 mg ml^−1 active G418. The cells were passaged every 2-3 days. For radioligand binding assay, cells were prepared in triple-layer flasks or in 175 cm^2 square flasks (for membrane preparation). For calcium mobilisation assay, cells were grown in a 96 well plate 24 h prior to the assay at a density of 80,000 cells per well.
Cells were seeded onto poly-D-lysine coated 96-well plates at a density of 80,000 cells per well and incubated at 37° C. overnight to allow the cells to adhere. Cells were washed twice with HBSS and incubated for 1 h at 37° C. in 100 μl HBSS and 100 μl calcium-3-dye (Molecular Devices), supplemented with 4 mM probenecid. Changes in fluorescence were monitored over a 50 s time course with agonist addition at 17 s using a Flexstation (Molecular Devices).

DP receptor = target: T2, DP receptor (Homo sapiens, UniProt Q13258); test: [3H]PGD2 radioligand binding on CHO/DP cell membranes; conditions: competition versus [3H]PGD2, CHO/DP membranes
T2 construct: expressed in transfected cells; host or cells: Chinese Hamster Ovary (CHO) cells, G418-selected (CHO/DP)
T2 sequence (Q13258 1-359): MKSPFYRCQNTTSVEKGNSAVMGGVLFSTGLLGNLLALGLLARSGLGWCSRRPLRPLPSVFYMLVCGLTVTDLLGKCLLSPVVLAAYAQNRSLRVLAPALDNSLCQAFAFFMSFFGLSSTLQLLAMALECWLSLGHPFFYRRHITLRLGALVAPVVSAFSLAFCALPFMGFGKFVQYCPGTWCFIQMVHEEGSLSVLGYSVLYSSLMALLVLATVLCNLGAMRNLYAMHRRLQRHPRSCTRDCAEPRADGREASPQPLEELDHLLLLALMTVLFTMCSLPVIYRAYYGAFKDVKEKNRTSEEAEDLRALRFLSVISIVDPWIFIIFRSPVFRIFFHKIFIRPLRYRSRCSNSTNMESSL
Protocol: as §1
(§2) Membranes were prepared either from CHO/CRTH2 and CHO/DP cells, or from platelets (as a source of TP receptors). CHO cells grown to confluency were washed with PBS and detached using a Versene solution (15 ml per flask). When the cells were grown in 175 cm^2 square flask, they were collected by scrapping in PBS. The cell suspensions were centrifuged (1,700 rpm, 10 min, 4° C.) and resuspended in 15 ml of buffer (1×HBSS, supplemented with 10 mM HEPES, pH 7.3). Cell suspensions were then homogenised using an Ultra Turrax at setting 4-6 for 20 s. The homogenate was centrifuged at 1,700 rpm for 10 min and the supernatant was collected and centrifuged at 20,000 rpm for 1 h at 4° C. The resulting pellet was resuspended in buffer and stored at −80° C. in aliquots of 200-500 μl. The protein concentration was determined by the method of Bradford (1976), using bovine serum albumin as standard. The platelets were washed by centrifugation at 600×g for 10 min and resuspended in ice-cold assay buffer (10 mM Tris-HCl, pH 7.4, 5 mM Glucose, 120 mM NaCl, 10 μM indomethacin) and directly centrifuged at 20,000 rpm for 30 min at 4° C. The resulting pellet was treated as described above.
(§3) [^3H]PGD2 (160 Ci/mmol) binding experiments were performed on membranes prepared as described above. Assays were performed in a final volume of 100 μl of buffer (1×HBSS/HEPES 10 mM, pH 7.3). Cell membranes (15 μg). Cell membranes […] were preincubated at room temperature with varying concentration of competing ligand for 15 min. [^3H]PGD2 (mol, final concentration) was then added and the incubation continued for a further one hour at room temperature. The reaction was terminated by the addition of 200 μl ice-cold assay buffer to each well, followed by rapid filtration through Whatman GF/B glass fibre filters using a Unifilter Cell harvester (PerkinElmer Life Sciences) and six washes of 300 μl of ice-cold buffer. The Unifilter plates were dried at room temperature for at least 1 h and the radioactivity retained on the filters was determined on a Beta Trilux counter (PerkinElmer Life Sciences), following addition of 40 μl of Optiphase Hi-Safe 3 (Wallac) liquid scintillation. Non specific binding was defined in the presence of 10 μM unlabelled PGD2. Assays were performed in duplicate.

CRTH2 [2] = target: T1, CRTH2; test: [3H]PGD2 radioligand binding on CHO/CRTH2 cell membranes; conditions: competition versus [3H]PGD2, CHO/CRTH2 membranes
Protocol: as §1, §2, §3

SMILES | IC50 (CRTH2 [1]) [nM] | Ki (DP receptor) [nM] | Ki (CRTH2 [2]) [nM] | EC50 (CRTH2 [1]; agonist, n=3, read-out: EC50, increase in intracellular Ca2+ mobilisation) [nM]
Cc1c(C(C)c2nc3ccccc3s2)c2cc(F)ccc2n1CC(=O)O (racemic) [Compound 19, (±)-3-(1-Benzothiazol-2-yl-ethyl)-5-fluoro-2-methyl-indol-1-yl]-acetic acid] | 34 ± 7 |  |  | 
Cc1c(C(C)c2ccc(S(C)(=O)=O)cc2)c2cc(F)ccc2n1CC(=O)O (stereo not shown) [Compound 4, {5-Fluoro-3-[1-(4-methanesulfonyl-phenyl)-ethyl]-2-methyl-indol-1-yl}-acetic acid] | 55 ± 18 | 30400 ± 9810 | 5 ± 4 | 
Cc1c(Cc2ccc3ccccc3n2)c2cc(F)ccc2n1CC(=O)O [Compound 6, (5-Fluoro-2-methyl-3-quinolin-2-ylmethyl-indol-1-yl)-acetic acid] |  | 17900 ± 7290 |  | 
Cc1c(Cc2ccc3ccccc3c2)c2cc(F)ccc2n1CC(=O)O [Compound 7, (5-Fluoro-2-methyl-3-naphthalen-2-ylmethyl-indol-1-yl)-acetic acid] | 38 ± 16 |  |  | 
Cc1c(Cc2ccc3cccc(O)c3n2)c2cc(F)ccc2n1CC(=O)O [Compound 8, [5-Fluoro-3-(8-hydroxy-quinolin-2-ylmethyl)-2-methyl-indol-1-yl]-acetic acid] | 11 ± 6 | 7710 ± 1780 | 6 ± 4 | 
COc1ccc(Cc2c(C)n(CC(=O)O)c3ccc(F)cc23)cc1 [Compound 10, [5-Fluoro-3-(4-methoxy-benzyl)-2-methyl-indol-1-yl]-acetic acid] | 47 ± 8 |  |  | 
Cc1c(Cc2ccc(Cl)cc2)c2cc(F)ccc2n1CC(=O)O [Compound 12, [3-(4-Chloro-benzyl)-5-fluoro-2-methyl-indol-1-yl]-acetic acid] | 108 ± 29 | 12200 ± 2250 | 11 ± 2 | 
Cc1c(Cc2nc3ccccc3s2)c2cc(F)ccc2n1CC(=O)O [Compound 13, (3-Benzothiazol-2-ylmethyl-5-fluoro-2-methyl-indol-1-yl)-acetic acid] |  |  | 6 ± 1 | 
Cc1c(Cc2ccc(S(C)(=O)=O)cc2)c2cc(F)ccc2n1CC(=O)O [Compound 17, [5-Fluoro-3-(4-methanesulfonyl-benzyl)-2-methyl-indol-1-yl]-acetic acid] | 64 ± 5 |  |  | 
Cc1c(Cc2ccc3cc(F)ccc3n2)c2cc(F)ccc2n1CC(=O)O [Compound 18, [5-Fluoro-3-(6-fluoro-quinolin-2-ylmethyl)-2-methyl-indol-1-yl]-acetic acid] | 10 ± 5 | 7740 ± 1440 | 1.3 ± 0.6 | 
O=C(O)Cn1cc(Cc2nc3c(F)c(F)cc(F)c3s2)c2ccccc21 [Compound 20, [3-(4,5,7-Trifluoro-benzothiazol-2-ylmethyl)-indol-1-yl]-acetic acid, reference compound] | 885 ± 96 | 3960 | 886 ± 248 | 
CCCCC[C@H](O)/C=C/[C@H]1C(=O)C[C@H](O)[C@@H]1C/C=C\CCCC(=O)O [PGD2, prostaglandin D2, reference compound] |  |  |  | 2.4 ± 0.5
